Data taken from ChEMBL document CHEMBL3132775, “Design, synthesis and biochemical investigation, by in vitro luciferase reporter system, of peptide nucleic acids as new inhibitors of miR-509-3p involved in the regulation of cystic fibrosis disease-gene expression” (Medchemcomm, 2014).
Active and inactive are the calls of the source. The rule behind the calls is not given here.

Experiments:
[1] = tested on: A549; test: Inhibition of miR-509-3p (unknown origin) transfected in human A549 cells assessed as luciferase activity at 50 uM by dual luciferase reporter gene assay; type: cell-based; parameters: scale not given: the % may be the effect or the level left
[2] = tested on: A549; test: Inhibition of miR-509-3p (unknown origin) transfected in human A549 cells by dual luciferase reporter gene assay; type: cell-based
[3] = tested on: A549; test: Inhibition of miR-509-3p (unknown origin) transfected in human A549 cells at 100 uM after 12 hrs by fluorescence microscopy; type: cell-based
[4] = Binding affinity to miR-509-3p (unknown origin) assessed as heteroduplex formation by CD spectra analysis
[5] = Binding affinity to miR-509-3p (unknown origin) assessed as apparent melting temperature by UV-spectrophotometeric analysis
[6] = Binding affinity to miR-509-3p (unknown origin) assessed as heteroduplex formation at 1:15 and 1:5 ratio after 2 hrs by EMSA
[7] = tested on: A549; test: Inhibition of miR-509-3p (unknown origin) transfected in human A549 cells at 10 to 50 uM by dual luciferase reporter gene assay; type: cell-based

SMILES | Activity [1] [%] | inhibition [2] | inhibition [3] | Activity [4] | Tm(app) [5] [°C] | Activity [6] | inhibition [7]
Cc1cn(CC(=O)N(CCNC(=O)CN(CCNC(=O)CN(CCNC(=O)CN(CCNC(=O)CN(CCNC(=O)CN(CCNC(=O)CN(CCNC(=O)COCCOCCNC(=S)Nc2ccc(C3c4ccc(O)cc4OC4=CC(=O)C=CC43)c(C(=O)O)c2)C(=O)Cn2ccc(N)nc2=O)C(=O)Cn2cnc3c(N)ncnc32)C(=O)Cn2ccc(N)nc2=O)C(=O)Cn2cnc3c(=O)[nH]c(N)nc32)C(=O)Cn2cnc3c(=O)[nH]c(N)nc32)C(=O)Cn2cnc3c(N)ncnc32)CC(=O)NCCN(CC(=O)NCCN(CC(=O)NCCN(CC(=O)NCCN(CC(=O)NCCN(CC(=O)NCCN(CC(=O)NCCN(CC(=O)NCC(=O)NC(COP(=O)(O)O)C(=O)NC(COP(=O)(O)O)C(=O)NCC(N)=O)C(=O)Cn2cc(C)c(=O)[nH]c2=O)C(=O)Cn2cnc3c(=O)[nH]c(N)nc32)C(=O)Cn2ccc(N)nc2=O)C(=O)Cn2ccc(N)nc2=O)C(=O)Cn2cnc3c(=O)[nH]c(N)nc32)C(=O)Cn2cnc3c(N)ncnc32)C(=O)Cn2cnc3c(=O)[nH]c(N)nc32)c(=O)[nH]c1=O (stereo unspecified) | < 40 | – | – | – | – | – | –
Cc1cn(CC(=O)N(CCNC(=O)CN(CCNC(=O)CN(CCNC(=O)CN(CCNC(=O)CN(CCNC(=O)CN(CCNC(=O)CN(CCNC(=O)CN(CCNC(=O)CN(CCNC(=O)CN(CCNC(=O)CN(CCNC(=O)CN(CCNC(=O)COCCOCCNC(=S)Nc2ccc(C3c4ccc(O)cc4OC4=CC(=O)C=CC43)c(C(=O)O)c2)C(=O)Cn2cnc3c(N)ncnc32)C(=O)Cn2cnc3c(=O)[nH]c(N)nc32)C(=O)Cn2cnc3c(N)ncnc32)C(=O)Cn2ccc(N)nc2=O)C(=O)Cn2cnc3c(=O)[nH]c(N)nc32)C(=O)Cn2cc(C)c(=O)[nH]c2=O)C(=O)Cn2cnc3c(N)ncnc32)C(=O)Cn2ccc(N)nc2=O)C(=O)Cn2ccc(N)nc2=O)C(=O)Cn2cnc3c(N)ncnc32)C(=O)Cn2cnc3c(N)ncnc32)CC(=O)NCCN(CC(=O)NCCN(CC(=O)NCC(=O)NC(COP(=O)(O)O)C(=O)NC(COP(=O)(O)O)C(=O)NCC(N)=O)C(=O)Cn2cnc3c(N)ncnc32)C(=O)Cn2ccc(N)nc2=O)c(=O)[nH]c1=O (stereo unspecified) | – | Dose-dependent effect | inactive | Active | 74 | Active | –
Cc1cn(CC(=O)N(CCNC(=O)CN(CCNC(=O)CN(CCNC(=O)CN(CCNC(=O)CN(CCNC(=O)CN(CCNC(=O)CN(CCNC(=O)CN(CCNC(=O)CN(CCNC(=O)CN(CCNC(=O)CN(CCNC(=O)CN(CCNC(=O)COCCOCCNC(=S)Nc2ccc(C3c4ccc(O)cc4Oc4cc(O)ccc43)c(C(=O)O)c2)C(=O)Cn2cnc3c(N)ncnc32)C(=O)Cn2cnc3c(=O)[nH]c(N)nc32)C(=O)Cn2cnc3c(N)ncnc32)C(=O)Cn2ccc(N)nc2=O)C(=O)Cn2cnc3c(=O)[nH]c(N)nc32)C(=O)Cn2cc(C)c(=O)[nH]c2=O)C(=O)Cn2cnc3c(N)ncnc32)C(=O)Cn2ccc(N)nc2=O)C(=O)Cn2ccc(N)nc2=O)C(=O)Cn2cnc3c(N)ncnc32)C(=O)Cn2cnc3c(N)ncnc32)CC(=O)NCCN(CC(=O)NCCN(CC(=O)N[C@@H](CCCCN)C(=O)N[C@@H](CCCCN)C(N)=O)C(=O)Cn2cnc3c(N)ncnc32)C(=O)Cn2ccc(N)nc2=O)c(=O)[nH]c1=O | – | – | inactive | Active | 80 | Active | Active
